Results from ChEMBL document CHEMBL1153694, “Non-hinge-binding pyrazolo[1,5-a]pyrimidines as potent B-Raf kinase inhibitors” (Bioorg Med Chem Lett, 2009).

Legend:
[1] = Cytotoxicity against human HT-29 cells expressing B-Raf mutant
[2] = target: Serine/threonine-protein kinase B-raf (Homo sapiens, UniProt P15056); assay: Inhibition of human recombinant B-Raf expressed in Sf9 cells
WM-266-4 (Homo sapiens) [3] = assay: Cytotoxicity against human WM266.4 cells expressing B-Raf mutant
in vitro = settings: rat, liver microsomes
WM-266-4 (Homo sapiens) [4] = assay: Cytotoxicity against human WM-266-4 cells expressing B-Raf mutant
[5] = target: Mitogen-activated protein kinase 8 (Homo sapiens, UniProt P45983); assay: Inhibition of JNK1
Mitogen-activated protein kinase 8, sequence (P45983 whole entry): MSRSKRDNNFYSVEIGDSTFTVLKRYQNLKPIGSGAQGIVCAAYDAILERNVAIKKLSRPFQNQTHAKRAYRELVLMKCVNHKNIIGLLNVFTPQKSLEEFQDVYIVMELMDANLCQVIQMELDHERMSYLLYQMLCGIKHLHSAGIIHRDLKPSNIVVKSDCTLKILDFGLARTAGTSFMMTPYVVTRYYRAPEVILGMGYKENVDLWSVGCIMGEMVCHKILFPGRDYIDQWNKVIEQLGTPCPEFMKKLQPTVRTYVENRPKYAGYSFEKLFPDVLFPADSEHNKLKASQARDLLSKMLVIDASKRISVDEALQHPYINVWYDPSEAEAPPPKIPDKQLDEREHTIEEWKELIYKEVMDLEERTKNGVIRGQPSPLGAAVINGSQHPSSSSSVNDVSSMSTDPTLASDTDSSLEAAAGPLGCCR

[6] = target: Cyclin-dependent kinase 4 (Homo sapiens, UniProt P11802); assay: Inhibition of CDK4
Cyclin-dependent kinase 4, sequence (P11802 whole entry): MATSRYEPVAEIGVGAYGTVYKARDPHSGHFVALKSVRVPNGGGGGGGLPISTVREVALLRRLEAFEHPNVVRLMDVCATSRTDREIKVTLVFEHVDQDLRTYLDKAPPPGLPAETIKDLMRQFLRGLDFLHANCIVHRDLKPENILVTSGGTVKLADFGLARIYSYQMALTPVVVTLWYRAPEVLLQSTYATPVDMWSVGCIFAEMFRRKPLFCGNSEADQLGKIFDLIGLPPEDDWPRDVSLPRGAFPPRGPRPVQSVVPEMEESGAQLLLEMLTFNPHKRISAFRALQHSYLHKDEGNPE

[7] = target: Ribosomal protein S6 kinase beta-1 (Homo sapiens, UniProt P23443); assay: Inhibition of p70S6K
Ribosomal protein S6 kinase beta-1, sequence (P23443 whole entry): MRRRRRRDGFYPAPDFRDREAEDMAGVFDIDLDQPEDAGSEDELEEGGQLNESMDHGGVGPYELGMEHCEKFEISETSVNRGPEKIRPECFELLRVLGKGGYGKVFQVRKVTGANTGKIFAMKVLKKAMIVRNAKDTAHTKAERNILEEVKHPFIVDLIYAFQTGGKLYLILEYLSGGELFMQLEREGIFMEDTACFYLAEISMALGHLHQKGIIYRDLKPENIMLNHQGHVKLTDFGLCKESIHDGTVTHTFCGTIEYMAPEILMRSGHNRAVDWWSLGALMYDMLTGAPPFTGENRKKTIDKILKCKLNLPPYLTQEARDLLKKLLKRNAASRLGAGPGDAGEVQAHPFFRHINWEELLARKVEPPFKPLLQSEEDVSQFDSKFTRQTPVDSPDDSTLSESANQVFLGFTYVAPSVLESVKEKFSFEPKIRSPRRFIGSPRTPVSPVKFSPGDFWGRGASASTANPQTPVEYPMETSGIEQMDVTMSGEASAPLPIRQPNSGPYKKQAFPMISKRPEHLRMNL

[8] = target: Protein kinase C alpha type (Homo sapiens, UniProt P17252); assay: Inhibition of PKCalpha
[9] = target: MAP kinase-activated protein kinase 2 (Homo sapiens, UniProt P49137); assay: Inhibition of MK2
MAP kinase-activated protein kinase 2, sequence (P49137 whole entry): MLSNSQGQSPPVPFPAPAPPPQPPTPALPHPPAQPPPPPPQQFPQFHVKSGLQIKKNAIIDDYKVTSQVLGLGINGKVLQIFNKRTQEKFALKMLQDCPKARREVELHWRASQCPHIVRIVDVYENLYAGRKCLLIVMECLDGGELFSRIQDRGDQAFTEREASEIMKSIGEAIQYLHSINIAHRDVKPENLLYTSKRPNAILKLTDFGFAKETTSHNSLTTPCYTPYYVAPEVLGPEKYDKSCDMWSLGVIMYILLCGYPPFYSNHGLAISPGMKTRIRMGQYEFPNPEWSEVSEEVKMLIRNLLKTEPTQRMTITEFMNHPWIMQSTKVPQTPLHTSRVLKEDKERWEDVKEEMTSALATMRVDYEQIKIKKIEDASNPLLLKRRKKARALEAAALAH

[10] = Inhibition of CAMK2
[11] = target: Phosphatidylinositol 4,5-bisphosphate 3-kinase catalytic subunit alpha isoform (Homo sapiens, UniProt P42336); assay: Inhibition of PI3Kalpha
Phosphatidylinositol 4,5-bisphosphate 3-kinase catalytic subunit alpha isoform, sequence (P42336 whole entry, canonical isoform): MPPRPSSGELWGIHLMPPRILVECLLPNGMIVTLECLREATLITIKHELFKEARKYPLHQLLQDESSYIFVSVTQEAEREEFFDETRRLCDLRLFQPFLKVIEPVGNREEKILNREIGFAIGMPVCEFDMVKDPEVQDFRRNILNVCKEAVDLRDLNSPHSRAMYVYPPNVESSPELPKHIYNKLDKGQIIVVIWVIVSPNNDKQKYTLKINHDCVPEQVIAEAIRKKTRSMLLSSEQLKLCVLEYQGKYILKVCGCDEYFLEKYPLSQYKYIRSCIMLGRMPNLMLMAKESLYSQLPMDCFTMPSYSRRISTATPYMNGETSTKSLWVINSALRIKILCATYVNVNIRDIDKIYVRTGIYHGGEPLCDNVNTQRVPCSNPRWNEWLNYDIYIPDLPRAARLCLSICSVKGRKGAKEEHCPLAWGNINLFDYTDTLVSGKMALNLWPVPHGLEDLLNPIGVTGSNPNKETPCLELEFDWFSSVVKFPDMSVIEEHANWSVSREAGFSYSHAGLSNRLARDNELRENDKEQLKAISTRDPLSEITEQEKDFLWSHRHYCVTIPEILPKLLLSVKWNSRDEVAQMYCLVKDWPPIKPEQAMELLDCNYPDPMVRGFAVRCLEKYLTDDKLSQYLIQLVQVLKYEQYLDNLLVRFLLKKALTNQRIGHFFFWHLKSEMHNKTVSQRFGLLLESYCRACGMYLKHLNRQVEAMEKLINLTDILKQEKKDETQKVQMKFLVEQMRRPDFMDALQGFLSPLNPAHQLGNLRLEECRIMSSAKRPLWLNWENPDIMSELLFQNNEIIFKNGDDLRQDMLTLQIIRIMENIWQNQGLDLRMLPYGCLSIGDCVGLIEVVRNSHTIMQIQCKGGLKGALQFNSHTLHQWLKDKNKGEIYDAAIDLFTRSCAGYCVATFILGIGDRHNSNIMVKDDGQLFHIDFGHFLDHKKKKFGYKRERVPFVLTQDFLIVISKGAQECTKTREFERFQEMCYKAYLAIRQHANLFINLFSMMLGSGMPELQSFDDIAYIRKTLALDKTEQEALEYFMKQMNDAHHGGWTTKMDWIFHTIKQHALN

[12] = Inhibition of PKA
[13] = target: T1, Dual specificity mitogen-activated protein kinase kinase 6 (Homo sapiens, UniProt P52564); assay: Inhibition of MKK6
T1 sequence (P52564 whole entry): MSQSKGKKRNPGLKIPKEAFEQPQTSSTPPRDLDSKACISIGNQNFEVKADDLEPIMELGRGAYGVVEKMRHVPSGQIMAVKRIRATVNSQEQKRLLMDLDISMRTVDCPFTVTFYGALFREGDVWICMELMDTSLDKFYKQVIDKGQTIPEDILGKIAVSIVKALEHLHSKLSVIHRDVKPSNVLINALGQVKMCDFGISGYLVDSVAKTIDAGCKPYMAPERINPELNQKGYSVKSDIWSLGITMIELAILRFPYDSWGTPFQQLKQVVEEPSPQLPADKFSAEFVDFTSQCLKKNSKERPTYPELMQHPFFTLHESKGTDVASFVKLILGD

[14] = target: Cyclin-dependent kinase 2 (Homo sapiens, UniProt P24941); assay: Inhibition of CDK2
[15] = target: T2, Inhibitor of nuclear factor kappa-B kinase subunit beta (Homo sapiens, UniProt O14920); assay: Inhibition of IKK-beta
T2 sequence (O14920 whole entry): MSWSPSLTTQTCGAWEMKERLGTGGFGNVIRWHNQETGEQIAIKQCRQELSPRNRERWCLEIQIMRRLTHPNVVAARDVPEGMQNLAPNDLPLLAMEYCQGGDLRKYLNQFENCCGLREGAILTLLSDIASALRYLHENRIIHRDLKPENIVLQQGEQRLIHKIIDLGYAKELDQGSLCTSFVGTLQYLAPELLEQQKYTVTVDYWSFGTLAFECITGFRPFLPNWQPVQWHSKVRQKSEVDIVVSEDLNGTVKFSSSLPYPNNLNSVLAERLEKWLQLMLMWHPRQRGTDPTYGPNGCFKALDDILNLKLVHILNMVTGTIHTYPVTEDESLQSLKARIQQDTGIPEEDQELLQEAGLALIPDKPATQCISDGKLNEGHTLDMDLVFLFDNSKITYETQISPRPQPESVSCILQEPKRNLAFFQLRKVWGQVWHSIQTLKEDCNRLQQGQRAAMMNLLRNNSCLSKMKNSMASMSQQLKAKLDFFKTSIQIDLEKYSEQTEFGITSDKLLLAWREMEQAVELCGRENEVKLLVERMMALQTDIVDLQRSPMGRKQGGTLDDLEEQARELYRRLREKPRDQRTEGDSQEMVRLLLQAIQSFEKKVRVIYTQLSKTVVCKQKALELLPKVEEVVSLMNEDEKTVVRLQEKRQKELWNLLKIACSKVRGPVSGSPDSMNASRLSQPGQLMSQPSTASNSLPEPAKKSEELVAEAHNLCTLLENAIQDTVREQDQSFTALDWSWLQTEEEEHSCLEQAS

[16] = target: Mitogen-activated protein kinase 14 (Homo sapiens, UniProt Q16539); assay: Inhibition of p38alpha
[17] = target: Proto-oncogene tyrosine-protein kinase Src (Homo sapiens, UniProt P12931); assay: Inhibition of SRC
Proto-oncogene tyrosine-protein kinase Src, sequence (P12931 2-536 limits assumed): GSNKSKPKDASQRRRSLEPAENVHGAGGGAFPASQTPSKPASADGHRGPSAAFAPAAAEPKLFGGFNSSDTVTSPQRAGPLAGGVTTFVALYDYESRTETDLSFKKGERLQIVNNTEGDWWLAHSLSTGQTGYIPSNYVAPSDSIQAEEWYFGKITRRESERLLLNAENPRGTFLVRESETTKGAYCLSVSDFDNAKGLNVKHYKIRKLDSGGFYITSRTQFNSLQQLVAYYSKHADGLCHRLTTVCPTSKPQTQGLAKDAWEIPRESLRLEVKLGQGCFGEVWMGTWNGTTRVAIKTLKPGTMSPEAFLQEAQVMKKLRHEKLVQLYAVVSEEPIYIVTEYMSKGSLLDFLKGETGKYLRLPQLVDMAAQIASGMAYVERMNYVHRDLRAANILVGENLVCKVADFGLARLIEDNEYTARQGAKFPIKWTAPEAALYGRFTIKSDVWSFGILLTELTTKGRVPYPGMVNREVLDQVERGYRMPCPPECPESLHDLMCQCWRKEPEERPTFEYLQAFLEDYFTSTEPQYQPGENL

[18] = target: Serine/threonine-protein kinase PLK1 (Homo sapiens, UniProt P53350); assay: Inhibition of PLK1

Serine/threonine-protein kinase B-raf, sequence (P15056 whole entry): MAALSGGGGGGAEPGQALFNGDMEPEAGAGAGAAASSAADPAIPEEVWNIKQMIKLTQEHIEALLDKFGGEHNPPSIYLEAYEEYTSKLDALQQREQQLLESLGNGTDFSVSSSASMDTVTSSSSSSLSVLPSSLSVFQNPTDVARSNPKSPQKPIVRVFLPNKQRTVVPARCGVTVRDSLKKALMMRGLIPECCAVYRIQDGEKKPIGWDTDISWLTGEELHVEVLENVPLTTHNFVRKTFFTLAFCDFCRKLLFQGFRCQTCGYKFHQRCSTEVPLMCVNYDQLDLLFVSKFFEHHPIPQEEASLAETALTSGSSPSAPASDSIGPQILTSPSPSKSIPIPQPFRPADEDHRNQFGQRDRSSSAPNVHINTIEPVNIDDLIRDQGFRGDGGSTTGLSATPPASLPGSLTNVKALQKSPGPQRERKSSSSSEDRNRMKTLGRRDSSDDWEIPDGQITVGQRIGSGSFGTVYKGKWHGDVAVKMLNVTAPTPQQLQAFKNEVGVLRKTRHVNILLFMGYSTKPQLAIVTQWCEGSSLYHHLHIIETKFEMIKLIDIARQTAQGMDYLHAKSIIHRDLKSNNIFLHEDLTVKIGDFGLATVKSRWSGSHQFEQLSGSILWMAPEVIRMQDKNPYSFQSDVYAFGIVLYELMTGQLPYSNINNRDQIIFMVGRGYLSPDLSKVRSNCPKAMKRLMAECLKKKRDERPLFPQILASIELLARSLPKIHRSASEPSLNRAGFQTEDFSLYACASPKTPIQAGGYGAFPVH

Row | IC50 [2] [µM] | Structure (SMILES) | IC50 [1] [µM] | IC50 (WM-266-4 (Homo sapiens) [3]) [µM] | also measured
1 | 0.139 | COCCOCC(=O)Nc1ccc(-c2cnn3c(-c4cccc(NC(=O)c5cccc(C(F)(F)F)c5)c4)ccnc23)cc1 | 3.9 | > 10 | 
2 | 0.034 | CN(C)CC(=O)Nc1ccc(-c2cnn3c(-c4cccc(NC(=O)c5cccc(C(F)(F)F)c5)c4)ccnc23)cc1 | 0.77 |  | 
3 |  | CN(C)CC(=O)Nc1cccc(-c2cnn3c(-c4cccc(NC(=O)c5cccc(C(F)(F)F)c5)c4)ccnc23)c1 | 0.8 |  | 
4 | 0.044 | CN1CCN(c2ccc(-c3cnn4c(-c5cccc(NC(=O)c6cccc(C(F)(F)F)c6)c5)ccnc34)cn2)CC1 | 0.31 |  | 
5 |  | CN1CCN(CCCC#Cc2cnn3c(-c4cccc(NC(=O)c5cccc(C(F)(F)F)c5)c4)ccnc23)CC1 | 2.6 | 1.4 | half-life (in vitro): 3 min
6 | 0.308 | CN(C)c1ccc(-c2cnn3c(-c4cccc(NC(=O)c5cccc(C(F)(F)F)c5)c4)ccnc23)cc1 |  | > 10 | 
7 | 0.098 | COc1ccc(NC(=O)c2cccc(C(F)(F)F)c2)cc1-c1ccnc2c(-c3cn[nH]c3)cnn12 | 2.9 |  | 
8 | 0.042 | O=C(Nc1ccc(Cl)c(-c2ccnc3c(-c4cn[nH]c4)cnn23)c1)c1cccc(C(F)(F)F)c1 | 2.9 |  | 
9 |  | O=C(Nc1cccc(-c2ccnc3c(C#CCCCN4CCOCC4)cnn23)c1)c1cccc(C(F)(F)F)c1 | 3.5 | 5.5 | half-life (in vitro): > 30 min
10 |  | O=C(Nc1cccc(-c2ccnc3c(-c4cn[nH]c4)cnn23)c1)c1cccc(C(F)(F)F)c1 | 2.8 |  | 
11 |  | O=C(Nc1cccc(-c2ccnc3c(-c4cnn(CCN5CCCC5)c4)cnn23)c1)c1cccc(C(F)(F)F)c1 | 2.8 | 3.3 | half-life (in vitro): 26 min
12 |  | O=C(Nc1cccc(-c2ccnc3c(-c4coc(CN5CCCC5)c4)cnn23)c1)c1cccc(C(F)(F)F)c1 | 2.2 | 3.2 | 
13 |  | NC(=O)c1cccc(-c2cnn3c(-c4cccc(NC(=O)c5cccc(C(F)(F)F)c5)c4)ccnc23)c1 | 3.2 |  | IC50 (WM-266-4 (Homo sapiens) [4]): 3.7 µM
14 |  | CN(C)Cc1ccc(-c2cnn3c(-c4cccc(NC(=O)c5cccc(C(F)(F)F)c5)c4)ccnc23)cc1 | 0.78 |  | IC50 [5]: > 2 µM; IC50 [6]: > 2 µM; IC50 [7]: > 2 µM; IC50 [8]: > 2 µM; IC50 [9]: > 2 µM; IC50 [10]: 0.822 µM; IC50 [11]: > 2 µM; IC50 [12]: > 2 µM; IC50 [13]: > 2 µM; IC50 [14]: > 2 µM; half-life (in vitro): 6 min; IC50 [15]: > 2 µM; IC50 [16]: 0.216 µM; IC50 [17]: > 2 µM; IC50 [18]: > 2 µM
15 | 0.02 | O=C(Nc1cccc(-c2ccnc3c(-c4ccc(CN5CCCC5)cc4)cnn23)c1)c1cccc(C(F)(F)F)c1 | 0.65 |  | half-life (in vitro): 27 min
16 | 0.113 | O=C(Nc1cccc(-c2ccnc3c(-c4cccnc4)cnn23)c1)c1cccc(C(F)(F)F)c1 |  |  | 
17 |  | Nc1ccc(-c2cnn3c(-c4cccc(NC(=O)c5cccc(C(F)(F)F)c5)c4)ccnc23)cn1 | 2.4 | 3.4 | 
18 |  | CN(C)CCNc1ccc(-c2cnn3c(-c4cccc(NC(=O)c5cccc(C(F)(F)F)c5)c4)ccnc23)cn1 | 0.46 |  | 
19 |  | CN(C)CCc1ccc(-c2cnn3c(-c4cccc(NC(=O)c5cccc(C(F)(F)F)c5)c4)ccnc23)cc1 | 0.73 | 0.74 | 
20 |  | CN(C)Cc1ccccc1-c1cnn2c(-c3cccc(NC(=O)c4cccc(C(F)(F)F)c4)c3)ccnc12 | 2.9 | 2.9 | 
21 |  | CN(C)Cc1cccc(-c2cnn3c(-c4cccc(NC(=O)c5cccc(C(F)(F)F)c5)c4)ccnc23)c1 | 0.8 |  | 
22 |  | CN(C)CCc1ccccc1-c1cnn2c(-c3cccc(NC(=O)c4cccc(C(F)(F)F)c4)c3)ccnc12 | 0.84 |  | 
23 |  | CN(C)CCc1cccc(-c2cnn3c(-c4cccc(NC(=O)c5cccc(C(F)(F)F)c5)c4)ccnc23)c1 | 0.65 |  | 

Row | Structure (SMILES) | IC50 [2] [µM] | IC50 [1] [µM] | IC50 (WM-266-4 (Homo sapiens) [3]) [µM] | also measured
24 | CN1CCN(c2ccc(-c3cnn4c(-c5cc(NC(=O)c6cccc(C(F)(F)F)c6)ccc5F)ccnc34)cn2)CC1 | 0.03 | 0.63 |  | 
25 | CN1CCN(Cc2ccc(-c3cnn4c(-c5cccc(NC(=O)c6cccc(C(F)(F)F)c6)c5)ccnc34)cc2)CC1 | 0.038 | 0.7 |  | half-life (in vitro): 3 min
26 | CCN1CCN(Cc2cc(-c3cnn4c(-c5cccc(NC(=O)c6cccc(C(F)(F)F)c6)c5)ccnc34)co2)CC1 | 0.219 | 1.7 | 2.9 | 
27 | O=C(Nc1ccc(F)c(-c2ccnc3c(-c4cn[nH]c4)cnn23)c1)c1cccc(C(F)(F)F)c1 | 0.018 | 2.8 |  | 
28 | O=C(Nc1cccc(-c2ccnc3c(-c4cnc(N5CCOCC5)nc4)cnn23)c1)c1cccc(C(F)(F)F)c1 | 0.941 |  |  | 
